This passage reports IC50 results from patent US5604203A, “Analogs of peptide YY and uses thereof” (University of Cincinnati, priority 1994, dated 1997).

The structures appear in SMILES notation. Read-outs that look alike come from different tables or passages of the source. Peptide text beside a SMILES is read from it.

This assay addresses T1, intestinal PYY-preferring receptors (Rattus norvegicus, UniProt Q9ERC0).
T1 sequence (Q9ERC0 1-381): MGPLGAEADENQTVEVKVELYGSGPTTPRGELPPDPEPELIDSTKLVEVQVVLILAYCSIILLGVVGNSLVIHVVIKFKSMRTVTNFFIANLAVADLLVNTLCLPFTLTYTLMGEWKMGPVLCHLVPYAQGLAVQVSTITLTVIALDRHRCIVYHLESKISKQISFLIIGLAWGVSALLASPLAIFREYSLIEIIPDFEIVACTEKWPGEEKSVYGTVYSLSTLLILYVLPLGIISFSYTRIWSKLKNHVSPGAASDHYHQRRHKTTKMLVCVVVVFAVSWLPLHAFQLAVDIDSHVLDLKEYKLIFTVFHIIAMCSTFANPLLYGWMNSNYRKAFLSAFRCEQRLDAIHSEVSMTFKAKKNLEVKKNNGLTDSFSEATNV

The mark [1] stands for this setting: IC50 (nM), Table 2, receptor binding data.

Protocol: Bound and free peptides were separated by centrifugation at 20,000×g for 10 min.
All points in the binding experiments are the mean of at least three experiments performed in duplicate.

As usually defined, the IC50 is the concentration that inhibits the measured activity by half. Low readings indicate inhibition by little substance, high ones a need for much substance. `CC(=O)N[C@@H](C)C(=O)N[C@@H](CO)C(=O)N[C@@H](CC(C)C)C(=O)N[C@@H](CCCNC(=N)N)C(=O)N[C@@H](Cc1cnc[nH]1)C(=O)N[C@@H](Cc1ccc(O)cc1)C(=O)N[C@@H](CC(C)C)C(=O)N[C@@H](CC(N)=O)C(=O)N[C@@H](CC(C)C)C(=O)N[C@H](C(=O)N[C@H](C(=O)N[C@@H](CCCNC(=N)N)C(=O)N[C@@H](CCC(N)=O)C(=O)N[C@@H](CCCNC(=N)N)C(=O)N[C@@H](Cc1ccc(O)cc1)C(N)=O)[C@@H](C)O)C(C)C` [N-α-Ac-PYY(22-36), N-α-Ac-A S L R H Y L N L V T R Q R Y--NH2]: the half-maximal inhibitory concentration (IC50) by setting is: (BINDING IC50 (nM), Table 1, 125I-PYY, rat jejunal membranes, mean of three separate experiments) 1.12 nM; under setting [1], 0.08 nM.

Regarding `CC(=O)N[C@@H](C)C(=O)N[C@@H](CO)C(=O)N[C@@H](CC(C)C)C(=O)N[C@@H](CCCNC(=N)N)C(=O)N[C@@H](Cc1c[nH]cn1)C(=O)N[C@@H](Cc1ccc(Cl)cc1)C(=O)N[C@@H](CC(C)C)C(=O)N[C@@H](CC(N)=O)C(=O)N[C@@H](CC(C)C)C(=O)N[C@H](C(=O)N[C@H](C(=O)N[C@@H](CCCNC(=N)N)C(=O)N[C@@H](CCC(N)=O)C(=O)N[C@@H](CCCNC(=N)N)C(=O)N[C@@H](Cc1ccc(O)cc1)C(N)=O)[C@@H](C)O)C(C)C` [Peptide 904, N-α-Ac-A S L R H [Pcp] L N L V T R Q R Y--NH2] (HELM PEPTIDE1{[ac].A.S.L.R.H.[O=C([C@H](Cc1ccc(Cl)cc1)N[*:1])[*:2]].L.N.L.V.T.R.Q.R.Y.[am]}$$$$V2.0), the IC50 (IC50 (nM), Table 3, binding activity) was 1.58 nM.

With `CC(=O)N[C@@H](C)C(=O)N[C@@H](CO)C(=O)N[C@@H](CC(C)C)C(=O)N[C@@H](CCCNC(=N)N)C(=O)N[C@@H](Cc1c[nH]cn1)C(=O)N[C@@H](Cc1csc2ccccc12)C(=O)N[C@@H](CC(C)C)C(=O)N[C@@H](CC(N)=O)C(=O)N[C@@H](CC(C)C)C(=O)N[C@H](C(=O)N[C@H](C(=O)N[C@@H](CCCNC(=N)N)C(=O)N[C@@H](CCC(N)=O)C(=O)N[C@@H](CCCNC(=N)N)C(=O)N[C@@H](Cc1ccc(O)cc1)C(N)=O)[C@@H](C)O)C(C)C` [Peptide 905, N-α-Ac-A S L R H [Bth] L N L V T R Q R Y--NH2] (HELM PEPTIDE1{[ac].A.S.L.R.H.[O=C([C@H](Cc1csc2ccccc12)N[*:1])[*:2]].L.N.L.V.T.R.Q.R.Y.[am]}$$$$V2.0), under setting [1], the IC50 was 0.22 nM.

Under setting [1], `CC(=O)N[C@@H](C)C(=O)N[C@@H](CO)C(=O)N[C@@H](CC(C)C)C(=O)N[C@@H](CCCN=C(N)N)C(=O)N[C@@H](Cc1c[nH]cn1)C(=O)N[C@@H](Cc1ccc(-c2ccccc2)cc1)C(=O)N[C@@H](CC(C)C)C(=O)N[C@@H](CC(N)=O)C(=O)N[C@@H](CC(C)C)C(=O)N[C@H](C(=O)N[C@H](C(=O)N[C@@H](CCCN=C(N)N)C(=O)N[C@@H](CCC(N)=O)C(=O)N[C@@H](CCCN=C(N)N)C(=O)N[C@@H](Cc1ccc(O)cc1)C(N)=O)[C@@H](C)O)C(C)C` [Peptide 906, N-α-Ac-A S L R H [Bip] L N L V T R Q R Y--NH2] (HELM PEPTIDE1{[ac].A.S.L.R.H.[O=C([C@H](Cc1ccc(-c2ccccc2)cc1)N[*:1])[*:2]].L.N.L.V.T.R.Q.R.Y.[am]}$$$$V2.0) had an IC50 of 4.46 nM.

For `CC(=O)N[C@@H](C)C(=O)N[C@@H](CO)C(=O)N[C@@H](CC(C)C)C(=O)N[C@@H](CCCNC(=N)N)C(=O)N[C@@H](Cc1c[nH]cn1)C(=O)N[C@@H](Cc1ccc2ccccc2c1)C(=O)N[C@@H](CC(C)C)C(=O)N[C@@H](CC(N)=O)C(=O)N[C@@H](CC(C)C)C(=O)N[C@H](C(=O)N[C@H](C(=O)N[C@@H](CCCNC(=N)N)C(=O)N[C@@H](CCC(N)=O)C(=O)N[C@@H](CCCNC(=N)N)C(=O)N[C@@H](Cc1ccc(O)cc1)C(N)=O)[C@@H](C)O)C(C)C` [Peptide 911, N-α-Ac-A S L R H [NaL] L N L V T R Q R Y--NH2] (HELM PEPTIDE1{[ac].A.S.L.R.H.[O=C([C@H](Cc1ccc2ccccc2c1)N[*:1])[*:2]].L.N.L.V.T.R.Q.R.Y.[am]}$$$$V2.0), the IC50 was 0.39 nM.
